In paper PMC11154582, “Modeling the Blood-Brain Barrier Permeability of Potential Heterocyclic Drugs via Biomimetic IAM Chromatography Technique Combined with QSAR Methodology” (Molecules, 2024):
Like-named read-outs stand apart in the source and are kept apart here.

What was measured:
[1] = IAM column, cited from earlier work
[2] = parameters: method as in ref [8,16] (a number printed in a supplementary file, which may have a reference list of its own: not looked up in the article's list); conditions: supplement ref [8,16]; cited from earlier work
[3] = system: oxidatively-stressed erythrocytes; conditions: supplement ref [4,19,26,30]; cited from earlier work
human cancer cells [4] = system: human cancer cells; parameters: method as in ref [3-7,9-15,17-21] (a number printed in a supplementary file, which may have a reference list of its own: not looked up in the article's list); conditions: supplement ref [3-7,9-15,17-21]; cited from earlier work
[5] = system: zebrafish embryos and larvae; parameters: method as in ref [18,20] (a number printed in a supplementary file, which may have a reference list of its own: not looked up in the article's list); conditions: versus anticancer agent pemetrexed; supplement ref [18,20]; cited from earlier work
[6] = parameters: method as in ref [21,22] (a number printed in a supplementary file, which may have a reference list of its own: not looked up in the article's list); conditions: supplement ref [21,22]; cited from earlier work
human cancer cells [7] = system: human cancer cells; parameters: method as in ref [3,9,10,13,18-21] (a number printed in a supplementary file, which may have a reference list of its own: not looked up in the article's list); conditions: supplement ref [3,9,10,13,18-21]; cited from earlier work
[8] = parameters: method as in ref [14] (a number printed in a supplementary file, which may have a reference list of its own: not looked up in the article's list); conditions: supplement ref [14]; cited from earlier work
[9] = system: central nervous system of mice; parameters: method as in PMID 24157086; conditions: preliminary tests, ref [21]; cited from earlier work
[10] = Biomimetic IAM chromatography (log kw, IAM); format: physicochemical; conditions: IAM.PC.DD2 column, buffered acetonitrile, pH 7.4, 25 °C, extrapolated to buffer
Procedure: High performance liquid chromatography (HPLC) measurements were performed on a Shimadzu Vp liquid chromatographic system (Shimadzu, Izabelin, Poland). This instrument was equipped with LC 10AT pump, SPD 10A ultraviolet-visible detector, SCL 10A system controller, CTO-10 AS chromatographic oven, and a Rheodyne injector valve with a 20 μL loop. As the stationary phase Regis IAM.PC.DD2 column, 100 × 4.6 mm i.d., 10 μm (Morton Grove, IL, USA) was applied.
Buffered acetonitrile mixtures were used as effluents. Acetonitrile concentration, expressed as a volume fraction, was varied within a range from 0.2 to 0.5, with a constant step of 0.1. The buffer was prepared from 0.01 mol L^−1 solutions of Na2HPO4 and citric acid, and a pH value of 7.4 was fixed before mixing with an organic modifier. The flow rate was 1.3 mL min^−1. Each compound sample was dissolved in acetonitrile to obtain a concentration of 0.005 mg mL^−1, and each solute peak was detected under ultraviolet light at a wavelength of λmax = 254 nm. Each measurement was performed at a constant temperature (25 °C) at least three times. The dead time values were measured from sodium chloride peaks.
From among 126 heterocyclic compounds evaluated in this work (Table 1), 89 structures have been investigated previously on the IAM column: these are molecules from groups III, IV, V, VI, VII, VIII, IX, XI, XIII, and XV [21, 22, 23]. The remaining ones, i.e., 37 compounds from groups I, II, X, XII and XIV, were tested in this study for the first time using the biomimetic IAM chromatographic technique. To calculate the log kw values (i.e., the logarithms of retention parameter in the buffer as the mobile phase), the retention parameters, logs k (k = (tr − t0)/t0; where tr is the solute retention time, and t0 is a dead time), that were measured for all tested compounds, were used according to Soczewiński-Wachtmeister’s equation (Equation (5)): (5) log k=logtr−t0/t0=log kw−sφ where φ denotes the volume fraction of acetonitrile as organic modifier in the mobile phase, and kw means the retention parameter corresponding to buffer as the mobile phase. The log kw values were evaluated as linear regression coefficients (Table 2).

bacteria = system: bacteria; parameters: method as in ref [3] (a number printed in a supplementary file, which may have a reference list of its own: not looked up in the article's list); conditions: supplement ref [3], cited from earlier work
Pseudomonas aeruginosa = system: Pseudomonas aeruginosa; parameters: method as in ref [3] (a number printed in a supplementary file, which may have a reference list of its own: not looked up in the article's list); conditions: versus chloramphenicol and ampicillin; supplement ref [3]; cited from earlier work
[11] = parameters: method as in ref [22] (a number printed in a supplementary file, which may have a reference list of its own: not looked up in the article's list); conditions: supplement ref [22]; cited from earlier work
[12] = system: hepatic adenosine A2A receptors; parameters: method as in ref [22] (a number printed in a supplementary file, which may have a reference list of its own: not looked up in the article's list); conditions: antagonizes stimulatory effect of a selective A2A receptor agonist; supplement ref [22]; cited from earlier work
[13] = parameters: method as in ref [19] (a number printed in a supplementary file, which may have a reference list of its own: not looked up in the article's list); conditions: supplement ref [19]; cited from earlier work

For `NNC(=O)c1nnc2n(c1=O)CCN2c1ccccc1` [Compound 51], the “log kw, IAM” value ([1]; ref [21]) is given as −0.14 and the analgesic activity [2] is given as “analgesic”.

In the case of `COC(=O)Cc1nnc2n(c1=O)CCN2c1ccc(C)cc1` [Compound 41], the “log kw, IAM” value ([1]; ref [23]) is listed as 1.33 and the analgesic activity [2] is listed as “analgesic”.

For `O=c1c(-c2ccccc2)nnc2n1CCN2c1ccc(Cl)c(Cl)c1` [Compound 92], the antihemolytic activity [3] is given as “antihemolytic”, the “log kw, IAM” value ([1]; ref [23]) is given as 3.26 and the analgesic activity [2] is given as “analgesic”.

For `CCOC(=O)c1nnc2n(c1=O)CCN2c1ccc(Cl)c(Cl)c1` [Compound 39], the antitumor activity (human cancer cells [4]) is given as “antitumor” and the “log kw, IAM” value ([1]; ref [22]) is given as 3.36.

For `O=c1c(C(F)(F)F)nnc2n1CCN2c1ccccc1` [Compound 15], the “toxicity for zebrafish embryos and larvae compared with pemetrexed” value [5] is listed as “lower” and the “log kw, IAM” value ([1]; ref [22]) is listed as 0.94.

For `NNC(=O)c1nnc2n(c1=O)CCN2c1ccc(Cl)c(Cl)c1` [Compound 55], the antiradical activity [6] is listed as “antiradical” and the “log kw, IAM” value ([1]; ref [21]) is listed as 0.69.

In the case of `Cc1ccccc1N1CCn2c1nnc(C(F)(F)F)c2=O` [Compound 16], the “toxicity for zebrafish embryos and larvae compared with pemetrexed” value [5] is given as “lower”, the “log kw, IAM” value ([1]; ref [22]) is given as 0.76 and the “mechanism of antiproliferative action: promoting apoptotic caspases” value (“mechanism … promoting apoptotic caspases” for short) (human cancer cells [7]) is given as “promoting apoptotic caspases”.

In the case of `COc1ccc(N2CCn3c2nnc(-c2ccccc2)c3=O)cc1` [Compound 86], the antimetastatic activity [8] is listed as “antimetastatic”, the antitumor activity (human cancer cells [4]) is listed as “antitumor” and the “log kw, IAM” value ([1]; ref [23]) is listed as 1.71.

In the case of `CCOc1ccc(N2CCn3c2nnc(Cc2ccccc2)c3=O)cc1` [Compound 112], the “log kw, IAM” value ([1]; ref [23]) is listed as 2.11 and the analgesic activity [2] is listed as “analgesic”.

In the case of `Cc1cccc(N2CCn3c2nnc(-c2ccccc2)c3=O)c1` [Compound 83], the antimetastatic activity [8] is given as “antimetastatic”, the antihemolytic activity [3] is given as “antihemolytic” and the analgesic activity [9] is given as “analgesic activity”. The toxicity [9] was “low toxicity”, the “log kw, IAM” value ([1]; ref [23]) was 2.26 and the analgesic activity [2] was “analgesic”.

For `NNC(=O)c1nnc2n(c1=O)CCN2c1cccc(Cl)c1` [Compound 54], the antitumor activity (human cancer cells [4]) is listed as “antitumor”, the “log kw, IAM” value ([1]; ref [21]) is listed as 0.41 and the “mechanism of antiproliferative action: inducing DNA damage” value (human cancer cells [7]) is listed as “DNA damage”. For the same molecule, the “mechanism of antiproliferative action: promoting apoptosis” value (shortened to “mechanism … promoting apoptosis”) (human cancer cells [7]) was “apoptosis”.

In the case of `Cc1cc(Cl)ccc1OCc1nnc2n1CCN2c1ccccc1` [Compound 8], the “log kw, IAM” value [10] is listed as 0.09 and the “mechanism of antiproliferative action: inducing DNA damage” value (human cancer cells [7]) is listed as “DNA damage”.

For `CCOC(=O)c1nnc2n(c1=O)CCN2c1cccc(Cl)c1` [Compound 37], the antitumor activity (human cancer cells [4]) is given as “antitumor” and the “log kw, IAM” value ([1]; ref [22]) is given as 1.73.

In the case of `Clc1ccc(OCc2nnc3n2CCN3c2ccc(Cl)c(Cl)c2)c(Cl)c1` [Compound 13], the “selectivity of antibacterial activity” value (bacteria; Gram-negative strains) is given as “selective activity on Gram-negative strains of bacteria”, the antibacterial activity (bacteria) is given as “antibacterial” and the “antibacterial potency against Pseudomonas aeruginosa ATCC 25923” value (Pseudomonas aeruginosa) is given as “superior”. The “log kw, IAM” value [10] was 2.91.

In the case of `COc1ccc(N2CCn3c2nnc(C(=O)NN)c3=O)cc1` [Compound 53], the “scavenging of the superoxide anion radical” value [11] is given as “able to scavenge”, the antiradical activity [6] is given as “antiradical” and the “action towards hepatic adenosine A2A receptors” value [12] is given as “antagonistic”. For the same molecule, the “log kw, IAM” value ([1]; ref [21]) was −0.10 and the analgesic activity [2] was “analgesic”.

For `CCOc1ccc(N2CCn3c2nnc(Cc2ccc(Cl)cc2)c3=O)cc1` [Compound 116], the analgesic activity [9] is given as “analgesic activity”, the toxicity [9] is given as “low toxicity” and the antitumor activity (human cancer cells [4]) is given as “antitumor”. For the same molecule, the “log kw, IAM” value ([1]; ref [23]) was 2.72.

For `O=c1c(-c2ccccc2)nnc2n1CCN2c1ccccc1Cl` [Compound 89], the antihemolytic activity [3] is given as “antihemolytic”, the analgesic activity [9] is given as “analgesic activity” and the toxicity [9] is given as “low toxicity”. For the same molecule, the “log kw, IAM” value ([1]; ref [23]) was 1.73 and the analgesic activity [2] was “analgesic”.

In the case of `COc1ccc(N2CCn3c2nnc(CC(=O)NN)c3=O)cc1` [Compound 58], the antiradical activity [6] is given as “antiradical” and the “log kw, IAM” value [10] is given as −0.27.

In the case of `CCc1nnc2n(c1=O)CCN2c1ccc(Cl)c(Cl)c1` [Compound 28], the antiviral activity [13] is listed as “antiviral” and the “log kw, IAM” value ([1]; ref [23]) is listed as 1.85.

For `O=c1c(-c2cccs2)nnc2n1CCN2c1ccc(Cl)c(Cl)c1` [Compound 80], the “log kw, IAM” value [10] is given as 2.68, the “mechanism … promoting apoptosis” value (human cancer cells [7]) is given as “apoptosis” and the “mechanism of antiproliferative action: promoting necrosis” value (shortened to “mechanism … promoting necrosis”) (human cancer cells [7]) is given as “necrosis”.

For `CC(C)c1nnc2n(c1=O)CCN2c1ccc(Cl)cc1` [Compound 33], the “log kw, IAM” value ([1]; ref [22]) is given as 1.39 and the “mechanism … promoting apoptotic caspases” value (human cancer cells [7]) is given as “promoting apoptotic caspases”.

In the case of `CCOC(=O)Cc1nnc2n(c1=O)CCN2c1ccccc1` [Compound 45], the “log kw, IAM” value ([1]; ref [23]) is given as 1.21, the “mechanism … promoting apoptosis” value (human cancer cells [7]) is given as “apoptosis” and the “mechanism … promoting necrosis” value (human cancer cells [7]) is given as “necrosis”.

In the case of `CCOC(=O)Cc1nnc2n(c1=O)CCN2c1cccc(Cl)c1` [Compound 48], the “log kw, IAM” value ([1]; ref [23]) is given as 2.05, the “mechanism … promoting apoptosis” value (human cancer cells [7]) is given as “apoptosis” and the “mechanism … promoting necrosis” value (human cancer cells [7]) is given as “necrosis”.

For `CCOc1ccc(N2CCn3c2nnc(Cc2ccccc2Cl)c3=O)cc1` [Compound 114], the analgesic activity [9] is given as “analgesic activity”, the toxicity [9] is given as “low toxicity” and the antitumor activity (human cancer cells [4]) is given as “antitumor”. The “log kw, IAM” value ([1]; ref [23]) was 2.51 and the analgesic activity [2] was “analgesic”.

For `O=c1c(Cc2ccccc2Cl)nnc2n1CCN2c1ccccc1` [Compound 103], the analgesic activity [9] is given as “analgesic activity”, the toxicity [9] is given as “low toxicity” and the “log kw, IAM” value ([1]; ref [23]) is given as 2.34. The analgesic activity [2] was “analgesic”.

For `CC(C)c1nnc2n(c1=O)CCN2c1ccccc1Cl` [Compound 31], the “log kw, IAM” value ([1]; ref [22]) is listed as 0.65 and the “mechanism … promoting apoptotic caspases” value (human cancer cells [7]) is listed as “promoting apoptotic caspases”.

For `CCOC(=O)Cc1nnc2n(c1=O)CCN2c1ccc(Cl)c(Cl)c1` [Compound 50], the “log kw, IAM” value ([1]; ref [23]) is given as 2.42, the “mechanism … promoting apoptosis” value (human cancer cells [7]) is given as “apoptosis” and the “mechanism … promoting necrosis” value (human cancer cells [7]) is given as “necrosis”.

In the case of `Cc1ccc(N2CCn3c2nnc(Cc2ccccc2Cl)c3=O)cc1` [Compound 109], the analgesic activity [9] is listed as “analgesic activity”, the toxicity [9] is listed as “low toxicity” and the antitumor activity (human cancer cells [4]) is listed as “antitumor”. For the same molecule, the “log kw, IAM” value ([1]; ref [23]) was 2.65 and the analgesic activity [2] was “analgesic”.

In the case of `O=c1c(-c2ccccc2)nnc2n1CCN2c1ccc(Cl)cc1` [Compound 91], the “log kw, IAM” value ([1]; ref [23]) is listed as 2.57 and the analgesic activity [2] is listed as “analgesic”.

In the case of `COC(=O)Cc1nnc2n(c1=O)CCN2c1ccc(OC)cc1` [Compound 42], the “log kw, IAM” value ([1]; ref [23]) is listed as 0.81 and the analgesic activity [2] is listed as “analgesic”.
